From ChEMBL document CHEMBL1201862, “PubChem BioAssay data set” (2004)
The source made the active and inactive calls.

Legend:
Format in all cases: functional
[1] = biological target: T1, High affinity choline transporter 1 (Homo sapiens, UniProt Q9GZV3); assay: CHT inhibitors, dose response, cell-based, 5-point CRC, membrane potential dye (AID 504840)
T1 sequence (Q9GZV3 whole entry): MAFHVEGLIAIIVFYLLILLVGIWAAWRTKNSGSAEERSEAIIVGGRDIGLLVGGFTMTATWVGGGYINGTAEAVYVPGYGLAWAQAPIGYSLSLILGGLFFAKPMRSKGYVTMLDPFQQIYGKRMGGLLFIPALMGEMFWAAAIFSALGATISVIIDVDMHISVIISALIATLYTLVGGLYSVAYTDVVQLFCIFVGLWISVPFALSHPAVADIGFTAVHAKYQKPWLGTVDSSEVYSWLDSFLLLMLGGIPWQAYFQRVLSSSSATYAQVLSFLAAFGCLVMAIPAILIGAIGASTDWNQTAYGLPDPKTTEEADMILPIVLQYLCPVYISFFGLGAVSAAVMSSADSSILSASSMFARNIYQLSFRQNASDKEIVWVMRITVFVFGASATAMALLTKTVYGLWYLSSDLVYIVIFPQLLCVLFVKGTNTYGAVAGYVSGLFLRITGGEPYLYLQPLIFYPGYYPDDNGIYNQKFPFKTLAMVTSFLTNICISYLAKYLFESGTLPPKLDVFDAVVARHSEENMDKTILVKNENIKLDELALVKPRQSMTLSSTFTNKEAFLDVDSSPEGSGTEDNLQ

[2] = biological target: T1, High affinity choline transporter 1; assay: CHT inhibitors, dose response, cell-based, 10-point CRC, membrane potential dye (AID 588401);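 also: membrane potential dye fluorescence of choline-evoked depolarization via CHT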
[3] = biological target: Vascular endothelial growth factor receptor 1 (Homo sapiens, UniProt P17948);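 also: measured within a kinome-wide profiling panel, FLT1 as the panel member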
[4] = biological target: ALK tyrosine kinase receptor (Homo sapiens, UniProt Q9UM73);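 also: ALK tested as one member of a kinase panel screen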
[5] = biological target: Serine/threonine-protein kinase pim-1 (Homo sapiens, UniProt P11309)
[6] = biological target: Leucine-rich repeat serine/threonine-protein kinase 2 (Homo sapiens, UniProt Q5S007);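 also: value from a broad kinome-wide panel profiling study in which LRRK2 was one of the kinases tested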
Aurora kinase B = Aurora kinase B (Homo sapiens, UniProt Q96GD4)
[7] = biological target: Macrophage-stimulating protein receptor (Homo sapiens, UniProt Q04912); assay: Navigating the Kinome. Panel member name: MST1R
LIM domain kinase 1 = LIM domain kinase 1 (Homo sapiens, UniProt P53667); assay: Navigating the Kinome. Panel member name: LIMK1
[8] = biological target: Dual specificity mitogen-activated protein kinase kinase 1 (Homo sapiens, UniProt Q02750); assay: Navigating the Kinome. Panel member name: MAP2K1
Activated CDC42 kinase 1 = Activated CDC42 kinase 1 (Homo sapiens, UniProt Q07912); assay: Navigating the Kinome. Panel member name: ACK1
[9] = biological target: Dual specificity mitogen-activated protein kinase kinase 2 (Homo sapiens, UniProt P36507); assay: Navigating the Kinome. Panel member name: MAP2K2
[10] = biological target: Serine/threonine-protein kinase TAO1 (Homo sapiens, UniProt Q7L7X3)
Activin receptor type-1 = Activin receptor type-1 (Homo sapiens, UniProt Q04771); assay: Navigating the Kinome. Panel member name: ACVR1
[11] = biological target: Mitogen-activated protein kinase 9 (Homo sapiens, UniProt P45984);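 also: value from a kinome panel profiling assay, MAPK9 panel entry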
[12] = biological target: Mitogen-activated protein kinase 8 (Homo sapiens, UniProt P45983);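 also: value comes from one member of a kinome-wide kinase profiling panel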
[13] = biological target: Serine/threonine-protein kinase D3 (Homo sapiens, UniProt O94806);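 also: determined within a kinase panel screen, with PRKCN as the panel member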
[14] = biological target: Inhibitor of nuclear factor kappa-B kinase subunit epsilon (Homo sapiens, UniProt Q14164); assay: Navigating the Kinome. Panel member name: IKBKE
[15] = biological target: Tyrosine-protein kinase JAK3 (Homo sapiens, UniProt P52333)
[16] = biological target: cAMP-dependent protein kinase catalytic subunit PRKX (Homo sapiens, UniProt P51817)
[17] = biological target: High affinity nerve growth factor receptor (Homo sapiens, UniProt P04629);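 also: NTRK1 tested as one member of a kinome-wide profiling panel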
[18] = biological target: Receptor-type tyrosine-protein kinase FLT3 (Homo sapiens, UniProt P36888);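 also: FLT3 was tested as one member of a kinome-wide kinase panel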
[19] = biological target: Cyclin-dependent kinase 9 (Homo sapiens, UniProt P50750);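 also: value from the CDK9 entry of a kinome-spanning kinase panel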
[20] = biological target: Tyrosine-protein kinase receptor TYRO3 (Homo sapiens, UniProt Q06418);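 also: TYRO3 value obtained as one member of a kinome-wide profiling panel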
[21] = biological target: Serine/threonine-protein kinase PAK 4 (Homo sapiens, UniProt O96013);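 also: value obtained within a kinome profiling panel in which PAK4 was one of the panel members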
[22] = biological target: Cyclin-dependent kinase 8 (Homo sapiens, UniProt P49336); assay: Navigating the Kinome. Panel member name: CDK8
[23] = biological target: Casein kinase I isoform alpha (Homo sapiens, UniProt P48729)
[24] = biological target: Platelet-derived growth factor receptor alpha (Homo sapiens, UniProt P16234); assay: Navigating the Kinome. Panel member name: PDGFRA
[25] = biological target: Glycogen synthase kinase-3 alpha (Homo sapiens, UniProt P49840);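 also: GSK3A result taken from a broad kinome-wide kinase panel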
[26] = biological target: 5'-AMP-activated protein kinase catalytic subunit alpha-1 (Homo sapiens, UniProt Q13131)
[27] = biological target: Dual specificity tyrosine-phosphorylation-regulated kinase 1A (Homo sapiens, UniProt Q13627);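 also: measured against DYRK1A as one member of a broad kinome profiling panel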
[28] = biological target: Macrophage colony-stimulating factor 1 receptor (Homo sapiens, UniProt P07333);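 also: value comes from the Navigating the Kinome screening panel, CSF1R member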
[29] = biological target: BDNF/NT-3 growth factors receptor (Homo sapiens, UniProt Q16620);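 also: NTRK2 measured as one member of a broad kinome-wide kinase profiling panel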
[30] = biological target: Dual specificity protein kinase CLK2 (Homo sapiens, UniProt P49760)
[31] = biological target: Mitogen-activated protein kinase kinase kinase kinase 4 (Homo sapiens, UniProt O95819)
[32] = biological target: Glycogen synthase kinase-3 beta (Homo sapiens, UniProt P49841);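 also: value comes from a broad kinome profiling panel, with GSK3B as the panel member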
[33] = biological target: Calcium/calmodulin-dependent protein kinase type II subunit alpha (Homo sapiens, UniProt Q9UQM7); assay: Navigating the Kinome. Panel member name: CAMK2A
[34] = biological target: Tyrosine-protein kinase JAK2 (Homo sapiens, UniProt O60674);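 also: JAK2 tested as one member of a kinase panel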
Aurora kinase A = Aurora kinase A (Homo sapiens, UniProt O14965);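 also: value from the Navigating the Kinome kinase panel profiling, panel entry STK6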
[35] = biological target: Cyclin-dependent kinase 5 (Homo sapiens, UniProt Q00535);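 also: CDK5 measured as one member of a kinase profiling panel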
[36] = biological target: Mitogen-activated protein kinase 14 (Homo sapiens, UniProt Q16539);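 also: part of a kinome-wide panel, MAPK14 entry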
[37] = biological target: Tyrosine-protein kinase Lck (Homo sapiens, UniProt P06239);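 also: lck was assayed as one member of a kinase panel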
[38] = biological target: Mitogen-activated protein kinase kinase kinase kinase 2 (Homo sapiens, UniProt Q12851);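 also: measured as one member of a kinome-wide kinase panel, with MAP4K2 as the panel entry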
[39] = biological target: Dual specificity tyrosine-phosphorylation-regulated kinase 1B (Homo sapiens, UniProt Q9Y463); assay: Navigating the Kinome. Panel member name: DYRK1B
[40] = biological target: Tyrosine-protein kinase Fyn (Homo sapiens, UniProt P06241)
[41] = biological target: Platelet-derived growth factor receptor beta (Homo sapiens, UniProt P09619);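 also: value comes from a kinome panel, with PDGFRB tested as one panel member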
[42] = biological target: Fibroblast growth factor receptor 1 (Homo sapiens, UniProt P11362)
[43] = biological target: Rho-associated protein kinase 1 (Homo sapiens, UniProt Q13464);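 also: measured within a broad kinome-wide panel profiling many kinases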
[44] = biological target: Death-associated protein kinase 3 (Homo sapiens, UniProt O43293);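 also: measured as one member of a kinome-wide profiling panel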
[45] = biological target: Tyrosine-protein kinase ABL1 (Homo sapiens, UniProt P00519)
[46] = biological target: Protein kinase C theta type (Homo sapiens, UniProt Q04759); assay: Navigating the Kinome. Panel member name: PRKCQ
[47] = biological target: Serine/threonine-protein kinase Chk1 (Homo sapiens, UniProt O14757);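 also: measured as one member of a kinome-wide kinase profiling panel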
[48] = biological target: Dual specificity protein kinase CLK4 (Homo sapiens, UniProt Q9HAZ1)
[49] = biological target: Leukocyte tyrosine kinase receptor (Homo sapiens, UniProt P29376); assay: Navigating the Kinome. Panel member name: LTK
[50] = biological target: Insulin-like growth factor 1 receptor (Homo sapiens, UniProt P08069); assay: Navigating the Kinome. Panel member name: IGF1R
[51] = biological target: cAMP-dependent protein kinase catalytic subunit alpha (Homo sapiens, UniProt P17612)
[52] = biological target: Vascular endothelial growth factor receptor 2 (Homo sapiens, UniProt P35968)
[53] = biological target: Serine/threonine-protein kinase TBK1 (Homo sapiens, UniProt Q9UHD2); assay: Navigating the Kinome. Panel member name: TBK1
[54] = biological target: Cyclin-dependent kinase 7 (Homo sapiens, UniProt P50613);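 also: value comes from a kinome-wide kinase profiling panel in which CDK7 is one member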
[55] = biological target: Serine/threonine-protein kinase Nek2 (Homo sapiens, UniProt P51955)

Chain of Insulin-like growth factor 1 receptor (P08069 31-736 limits assumed): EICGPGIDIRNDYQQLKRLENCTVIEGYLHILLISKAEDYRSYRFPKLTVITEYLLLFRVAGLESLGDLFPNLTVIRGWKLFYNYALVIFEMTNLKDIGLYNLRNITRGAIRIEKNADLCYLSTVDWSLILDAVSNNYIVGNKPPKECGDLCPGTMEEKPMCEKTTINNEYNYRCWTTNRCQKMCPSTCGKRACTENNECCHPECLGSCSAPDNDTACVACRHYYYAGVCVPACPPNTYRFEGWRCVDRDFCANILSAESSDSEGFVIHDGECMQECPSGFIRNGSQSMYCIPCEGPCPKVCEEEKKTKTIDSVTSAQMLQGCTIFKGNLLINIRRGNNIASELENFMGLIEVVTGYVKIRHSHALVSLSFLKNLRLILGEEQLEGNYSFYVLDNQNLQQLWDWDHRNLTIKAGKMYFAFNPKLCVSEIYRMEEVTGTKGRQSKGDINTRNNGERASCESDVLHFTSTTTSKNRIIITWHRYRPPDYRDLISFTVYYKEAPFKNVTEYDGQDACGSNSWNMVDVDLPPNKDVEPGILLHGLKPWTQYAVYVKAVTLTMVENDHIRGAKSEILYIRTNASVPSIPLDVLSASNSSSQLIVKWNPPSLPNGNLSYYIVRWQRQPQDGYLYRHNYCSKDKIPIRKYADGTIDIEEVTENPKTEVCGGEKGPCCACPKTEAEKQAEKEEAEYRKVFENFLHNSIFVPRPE
Chain of Insulin-like growth factor 1 receptor (P08069 741-1367 limits assumed): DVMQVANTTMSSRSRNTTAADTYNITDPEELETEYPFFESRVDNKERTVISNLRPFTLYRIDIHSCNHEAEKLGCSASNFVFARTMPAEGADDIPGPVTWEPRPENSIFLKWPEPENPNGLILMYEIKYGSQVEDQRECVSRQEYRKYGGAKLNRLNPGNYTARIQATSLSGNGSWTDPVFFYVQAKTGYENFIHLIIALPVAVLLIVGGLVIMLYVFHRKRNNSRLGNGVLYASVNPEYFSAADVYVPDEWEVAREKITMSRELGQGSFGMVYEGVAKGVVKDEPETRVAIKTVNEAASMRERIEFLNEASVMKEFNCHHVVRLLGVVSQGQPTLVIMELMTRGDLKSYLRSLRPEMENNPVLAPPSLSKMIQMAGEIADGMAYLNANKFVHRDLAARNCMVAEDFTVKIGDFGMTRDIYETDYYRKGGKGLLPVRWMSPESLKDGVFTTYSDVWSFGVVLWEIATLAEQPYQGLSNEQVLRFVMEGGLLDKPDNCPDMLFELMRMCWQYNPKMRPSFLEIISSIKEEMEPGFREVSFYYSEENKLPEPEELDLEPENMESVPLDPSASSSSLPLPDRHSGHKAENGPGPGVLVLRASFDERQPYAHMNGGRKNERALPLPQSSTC
Chain of Tyrosine-protein kinase ABL1 (P00519 whole entry): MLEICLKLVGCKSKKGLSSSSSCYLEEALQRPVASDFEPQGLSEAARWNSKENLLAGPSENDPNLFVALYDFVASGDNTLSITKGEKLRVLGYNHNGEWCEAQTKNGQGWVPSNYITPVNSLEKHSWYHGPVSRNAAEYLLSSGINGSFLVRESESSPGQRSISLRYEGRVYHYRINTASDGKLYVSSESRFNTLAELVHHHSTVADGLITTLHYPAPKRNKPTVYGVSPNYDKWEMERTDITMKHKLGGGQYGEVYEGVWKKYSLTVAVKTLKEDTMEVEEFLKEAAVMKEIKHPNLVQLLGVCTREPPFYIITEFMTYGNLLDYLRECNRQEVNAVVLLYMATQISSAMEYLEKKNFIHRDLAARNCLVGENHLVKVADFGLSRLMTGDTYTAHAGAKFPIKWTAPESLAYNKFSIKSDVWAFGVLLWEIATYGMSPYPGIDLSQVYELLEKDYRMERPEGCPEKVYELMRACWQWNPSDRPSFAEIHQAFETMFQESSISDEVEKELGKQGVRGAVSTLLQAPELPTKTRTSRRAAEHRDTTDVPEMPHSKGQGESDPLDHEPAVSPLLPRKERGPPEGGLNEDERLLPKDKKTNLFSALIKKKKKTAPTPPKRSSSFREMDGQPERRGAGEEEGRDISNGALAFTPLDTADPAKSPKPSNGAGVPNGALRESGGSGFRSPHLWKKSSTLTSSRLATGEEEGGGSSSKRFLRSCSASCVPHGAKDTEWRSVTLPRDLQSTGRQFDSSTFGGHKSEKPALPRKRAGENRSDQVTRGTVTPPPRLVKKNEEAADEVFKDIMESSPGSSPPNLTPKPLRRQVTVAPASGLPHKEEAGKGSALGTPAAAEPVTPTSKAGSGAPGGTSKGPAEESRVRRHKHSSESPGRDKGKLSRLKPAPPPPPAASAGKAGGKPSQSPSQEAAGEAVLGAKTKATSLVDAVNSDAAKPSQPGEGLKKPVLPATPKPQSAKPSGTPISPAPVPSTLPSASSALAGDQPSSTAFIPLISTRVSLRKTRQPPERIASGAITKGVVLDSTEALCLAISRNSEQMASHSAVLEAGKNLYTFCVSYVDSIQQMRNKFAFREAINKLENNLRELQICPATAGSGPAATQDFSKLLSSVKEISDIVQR
Chain of Cyclin-dependent kinase 8 (P49336 whole entry, canonical isoform): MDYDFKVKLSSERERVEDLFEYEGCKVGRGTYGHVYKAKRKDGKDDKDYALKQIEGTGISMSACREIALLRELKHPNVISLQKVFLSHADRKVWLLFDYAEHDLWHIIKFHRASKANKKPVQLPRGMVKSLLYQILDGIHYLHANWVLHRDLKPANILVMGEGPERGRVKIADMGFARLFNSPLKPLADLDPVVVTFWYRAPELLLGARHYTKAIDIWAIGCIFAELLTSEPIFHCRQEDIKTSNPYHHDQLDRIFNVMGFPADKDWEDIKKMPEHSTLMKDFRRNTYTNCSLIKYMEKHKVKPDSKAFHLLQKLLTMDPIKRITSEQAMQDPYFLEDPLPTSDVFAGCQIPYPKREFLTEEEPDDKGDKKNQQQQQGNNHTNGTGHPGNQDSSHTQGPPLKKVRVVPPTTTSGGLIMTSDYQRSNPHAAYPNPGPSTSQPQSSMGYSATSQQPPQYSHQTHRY
Chain of Serine/threonine-protein kinase TBK1 (Q9UHD2 whole entry): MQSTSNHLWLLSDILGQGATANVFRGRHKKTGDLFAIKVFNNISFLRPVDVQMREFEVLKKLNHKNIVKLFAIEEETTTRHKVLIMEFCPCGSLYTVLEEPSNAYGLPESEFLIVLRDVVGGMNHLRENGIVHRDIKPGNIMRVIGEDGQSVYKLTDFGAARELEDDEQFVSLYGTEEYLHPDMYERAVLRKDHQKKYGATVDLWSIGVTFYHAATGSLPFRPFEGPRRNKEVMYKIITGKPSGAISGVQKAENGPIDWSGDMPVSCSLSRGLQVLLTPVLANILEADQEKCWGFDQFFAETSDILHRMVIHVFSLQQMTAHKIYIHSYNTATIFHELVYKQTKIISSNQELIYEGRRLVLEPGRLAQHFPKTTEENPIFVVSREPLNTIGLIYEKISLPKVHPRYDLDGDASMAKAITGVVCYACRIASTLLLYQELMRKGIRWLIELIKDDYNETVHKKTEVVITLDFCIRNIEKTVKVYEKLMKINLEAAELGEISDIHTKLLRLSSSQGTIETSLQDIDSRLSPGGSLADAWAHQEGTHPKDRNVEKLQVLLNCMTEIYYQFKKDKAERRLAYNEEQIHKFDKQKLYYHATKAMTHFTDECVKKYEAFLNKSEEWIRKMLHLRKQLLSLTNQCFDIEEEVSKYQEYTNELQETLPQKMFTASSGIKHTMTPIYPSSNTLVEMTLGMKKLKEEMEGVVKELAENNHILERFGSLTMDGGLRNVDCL
Chain of Death-associated protein kinase 3 (O43293 whole entry): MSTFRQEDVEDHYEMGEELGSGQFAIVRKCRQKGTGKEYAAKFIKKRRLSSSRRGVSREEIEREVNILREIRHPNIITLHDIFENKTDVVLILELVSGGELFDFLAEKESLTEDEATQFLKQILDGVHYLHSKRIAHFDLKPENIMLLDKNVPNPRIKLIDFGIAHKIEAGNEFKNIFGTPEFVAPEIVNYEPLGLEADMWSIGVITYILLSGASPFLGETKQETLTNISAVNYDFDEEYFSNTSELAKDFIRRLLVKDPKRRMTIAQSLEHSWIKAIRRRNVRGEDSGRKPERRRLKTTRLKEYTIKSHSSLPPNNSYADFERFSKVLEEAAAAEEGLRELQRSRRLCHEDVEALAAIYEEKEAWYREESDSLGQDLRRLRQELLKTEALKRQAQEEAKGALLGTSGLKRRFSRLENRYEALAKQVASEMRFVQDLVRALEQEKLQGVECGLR
Chain of High affinity nerve growth factor receptor (P04629 whole entry): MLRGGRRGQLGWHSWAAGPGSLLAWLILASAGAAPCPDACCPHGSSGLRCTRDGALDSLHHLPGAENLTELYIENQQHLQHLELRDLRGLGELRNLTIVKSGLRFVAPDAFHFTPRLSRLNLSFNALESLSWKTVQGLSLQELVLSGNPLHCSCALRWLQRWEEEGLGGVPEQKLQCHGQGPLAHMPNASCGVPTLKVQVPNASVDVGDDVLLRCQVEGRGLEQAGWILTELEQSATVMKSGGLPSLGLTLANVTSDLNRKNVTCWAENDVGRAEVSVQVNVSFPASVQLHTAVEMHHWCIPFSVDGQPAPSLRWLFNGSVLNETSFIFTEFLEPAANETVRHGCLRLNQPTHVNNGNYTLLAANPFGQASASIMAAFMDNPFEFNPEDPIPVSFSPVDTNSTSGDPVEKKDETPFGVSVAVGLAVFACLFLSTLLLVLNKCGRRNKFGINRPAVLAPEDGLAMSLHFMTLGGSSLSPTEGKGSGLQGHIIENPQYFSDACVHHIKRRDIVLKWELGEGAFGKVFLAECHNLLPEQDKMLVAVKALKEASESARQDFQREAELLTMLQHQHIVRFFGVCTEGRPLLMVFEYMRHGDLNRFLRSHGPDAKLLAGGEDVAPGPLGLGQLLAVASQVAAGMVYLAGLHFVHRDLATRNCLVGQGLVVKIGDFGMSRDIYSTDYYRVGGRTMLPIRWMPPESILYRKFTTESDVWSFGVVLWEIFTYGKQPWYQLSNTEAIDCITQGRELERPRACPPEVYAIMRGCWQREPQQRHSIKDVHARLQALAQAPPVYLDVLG

In the case of COc1ccc(C(CNC(=O)c2cccc(S(=O)(=O)Nc3ccc(C)cc3)c2)N2CCCCC2)cc1 (stereo not given), the IC50 [1] is reported as 8720 nM (active) and the IC50 [2] is reported as 5770 nM (active).
For N#Cc1ccc2c(c1)C(c1ccc3c(n1)CCCC3O)C(=O)N2 (stereo not given), the Ki [3] was 1580 nM (active), the Ki [4] was 2510 nM (active) and the Ki [5] was > 6310 nM (inactive). The Ki [6] was 1260 nM (active), the Ki (Aurora kinase B) was 501 nM (active) and the Ki [7] was 316 nM (active). For the same compound, the Ki (LIM domain kinase 1) was > 3160 nM (inactive), the Ki [8] was 1000 nM (active) and the Ki (Activated CDC42 kinase 1) was > 3980 nM (inactive). For the same compound, the Ki [9] was 794 nM (active), the Ki [10] was > 6310 nM (inactive) and the Ki (Activin receptor type-1) was 2000 nM (active). The Ki [11] was > 3980 nM (inactive), the Ki [12] was 1260 nM (active) and the Ki [13] was 3160 nM (active). For the same compound, the Ki [14] was 2000 nM (active), the Ki [15] was > 5010 nM (inactive) and the Ki [16] was > 3160 nM (inactive). The Ki [17] was > 3160 nM (inactive), the Ki [18] was 100 nM (active) and the Ki [19] was 631 nM (active). The Ki [20] was 2510 nM (active), the Ki [21] was > 5010 nM (inactive) and the Ki [22] was > 3980 nM (inactive). The Ki [23] was 39.8 nM (active), the Ki [24] was > 2510 nM (inactive) and the Ki [25] was 79.4 nM (active). The Ki [26] was 1260 nM (active), the Ki [27] was 100 nM (active) and the Ki [28] was 126 nM (active). The Ki [29] was 2000 nM (active), the Ki [30] was 398 nM (active) and the Ki [31] was 316 nM (active). For the same compound, the Ki [32] was 31.6 nM (active), the Ki [33] was > 3980 nM (inactive) and the Ki [34] was > 2510 nM (inactive). For the same compound, the Ki (Aurora kinase A) was 1580 nM (active), the Ki [35] was > 3160 nM (inactive) and the Ki [36] was > 3980 nM (inactive). The Ki [37] was > 6310 nM (inactive), the Ki [38] was 1580 nM (active) and the Ki [39] was 126 nM (active). For the same compound, the Ki [40] was > 6310 nM (inactive), the Ki [41] was 316 nM (active) and the Ki [42] was 3160 nM (active). For the same compound, the Ki [43] was 2000 nM (active), the Ki [44] was 1260 nM (active) and the Ki [45] was > 2510 nM (inactive). For the same compound, the Ki [46] was > 2510 nM (inactive), the Ki [47] was > 3160 nM (inactive) and the Ki [48] was 31.6 nM (active). For the same compound, the Ki [49] was 501 nM (active), the Ki [50] was > 2510 nM (inactive) and the Ki [51] was > 1260 nM (inactive). For the same compound, the Ki [52] was 158 nM (active), the Ki [53] was 794 nM (active) and the Ki [54] was 39.8 nM (active). For the same compound, the Ki [55] was > 3160 nM (inactive).
